{"source": "patent US10702506B2", "about": "“Small molecule inhibitors of pendrin ion exchange and pharmaceutical compositions” (THE REGENTS OF THE UNIVERSITY OF CALIFORNIA, priority 2016, dated 2020)", "target": "T1, pendrin (Homo sapiens, UniProt O43511)", "T1 sequence (O43511 1-780)": "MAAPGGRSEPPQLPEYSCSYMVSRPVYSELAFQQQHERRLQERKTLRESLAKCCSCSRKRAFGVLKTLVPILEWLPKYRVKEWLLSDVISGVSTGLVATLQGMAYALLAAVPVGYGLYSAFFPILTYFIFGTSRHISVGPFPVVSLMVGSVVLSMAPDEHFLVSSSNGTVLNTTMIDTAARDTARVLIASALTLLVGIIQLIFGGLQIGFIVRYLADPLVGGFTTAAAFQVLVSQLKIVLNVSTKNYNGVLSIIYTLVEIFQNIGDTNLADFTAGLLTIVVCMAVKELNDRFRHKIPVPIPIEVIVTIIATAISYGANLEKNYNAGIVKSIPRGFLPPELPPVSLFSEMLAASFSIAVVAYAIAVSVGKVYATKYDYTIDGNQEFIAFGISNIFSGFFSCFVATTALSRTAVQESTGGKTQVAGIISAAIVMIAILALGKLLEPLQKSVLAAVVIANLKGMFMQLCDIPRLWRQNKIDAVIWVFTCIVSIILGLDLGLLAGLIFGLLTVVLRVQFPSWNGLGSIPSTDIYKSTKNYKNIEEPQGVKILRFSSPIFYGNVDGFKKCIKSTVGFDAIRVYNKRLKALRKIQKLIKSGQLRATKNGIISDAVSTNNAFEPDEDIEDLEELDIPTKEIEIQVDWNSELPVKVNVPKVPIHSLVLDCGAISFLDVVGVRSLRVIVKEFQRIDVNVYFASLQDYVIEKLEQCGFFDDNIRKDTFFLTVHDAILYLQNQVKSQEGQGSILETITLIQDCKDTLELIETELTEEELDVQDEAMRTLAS", "assay": "BCECF assay of Cl−/HCO3− exchange in primary HBE and CFBE cell cultures", "assay_type": "cell-based", "design": "endogenous in cells; host or cells: primary human bronchial epithelial cultures from non-CF (HBE) and CF (CFBE) donors, with or without IL-13", "settings": "25 μM", "experimental": "Bronchial tissues were obtained from non-CF (without significant airway disease) and CF subjects following lung transplantation, or from lungs donated for transplantation but subsequently found to be unsuitable for that purpose. Non-CF and CF human bronchial epithelial (HBE and CFBE, respectively) cell cultures were grown at an air-liquid interface as described in detail. At 21 days post-seeding, cells typically formed a tight epithelium (RTE>1000 Ωcm^2). In some experiments, the culture medium was supplemented with 10 ng/ml recombinant human IL-13 (Peprotech, Rocky Hill, N.J.) for 7 days starting at day 21 of culture. […] Pendrin transcript levels in human primary cells were measured by Taqman quantitative PCR using the Hs00166504_m1 probe set (ThermoFisher Scientific, Grand Island, N.Y.) at the UCSF Helen Diller Cancer Center Genome Analysis Core. […]\nCytoplasmic pH (pHi) was measured to assay pendrin-mediated Cl^−/HCO3^− exchange in pendrin-expressing FRT cells and primary cell cultures using the pH-sensitive fluorescent probe BCECF. […] BCECF pH-sensitive fluorescence (490 nm excitation, 535 nm emission) was acquired at 0.5 Hz, with control experiments confirming that BCECF pH-insensitive fluorescence was not altered during exchange protocols. In some experiments pHi changes in the absence of HCO3^− were measured using buffers in which NaCl or Na gluconate replaced NaHCO3^−. […]"}
{"smiles": "Cn1nc(COc2cccc(F)c2)c2c1CCN(C(=O)Nc1ccc(Cl)cc1)C2", "note": "[PDSinh-A01]", "values": [{"measurement": "effect on intracellular alkalinization in response to gluconate gradient, IL-13-treated cultures", "setting": "IL-13-treated", "value": "inhibited"}, {"measurement": "effect on pH changes in response to gluconate gradient, control cultures", "setting": "no added IL-13, 30 min", "value": "not altered"}]}
